Measured values taken from patent US11639506B2, “Recombinant yeast having increased tolerance to ionic liquids and methods of use” (Wisconsin Alumni Research Foundation, priority 2015, dated 2023).

What was measured:
[1] = tested on: Y133 ptk2Δ; assay type: cell-based, S. cerevisiae; conditions: in the presence of 1% EMIM-Cl, versus Y133
Text: We deleted PTK2 in our xylose fermenting yeast GLBRCY133 (Parreiras et al.,2014).

[2] = tested on: yeast overexpressing PMA1 or PTK2; test: Tolerance of PMA1 / PTK2 overexpression strains; assay type: cell-based
[3] = tested on: PTK2 deletion mutant in a lab strain background; test: Growth inhibition IC50, PTK2 deletion mutant in lab strain; assay type: cell-based, S. cerevisiae; conditions: deletion mutant of PTK2 in the lab strain
Procedure: Compounds, initial screening, and IC50 determination: Compounds tested were purchased from Sigma-Aldrich. Cells of S. cerevisiae (MATαpdr1Δ::natMXpdr3Δ::KI.URA3 snq2Δ::KI.LEU2 can1Δ::STE2pr-Sp_his5 lyp1Δhis3Δ1 leu2Δ0 ura3Δ0 met15Δ0), referred to as control strain, were grown in 200 μl cultures at 30° C. in YPD, with a drug or DMSO control. Plates were read on a TECAN M1000 over a 48 hour growth period. The specific growth rate was calculated using GCAT analysis software (available at cat3-pub.glbrc.org on the World Wide Web) (Sato et al., 2013). When presented, IC50 values for growth inhibition were calculated from triplicate 8 point dose curves and SigmaPlot 12.0. When presented, error bars are mean±standard error (S.E.) of at least 3 replicates.

[4] = tested on: xylose fermenting yeast GLBRCY133; test: Growth inhibition IC50, xylose fermenting yeast Y133; assay type: cell-based, S. cerevisiae; conditions: Y133 and Y133 ptk2Δ
[5] = tested on: Y133 ptk2Δ; assay type: cell-based, S. cerevisiae; conditions: relative to Y133, p<0.01
Procedure: Compounds, initial screening, and IC50 determination: Compounds tested were purchased from Sigma-Aldrich. […] Plates were read on a TECAN M1000 over a 48 hour growth period. […] When presented, IC50 values for growth inhibition were calculated from triplicate 8 point dose curves and SigmaPlot 12.0. When presented, error bars are mean±standard error (S.E.) of at least 3 replicates.

[6] = tested on: S. cerevisiae deletion mutants; test: Chemical genomic profiling of pooled deletion mutants; assay type: cell-based; conditions: listed as EMIM-CI

CCn1cc[n+](C)c1.[Cl-] [EMIM-Cl, 1-ethyl-3-methylimidazolium chloride]
sugar conversion (glucose and xylose) and ethanol production of PTK2 mutant [1]: significantly improved
EMIM-Cl tolerance on increased expression of PMA1 ([2]; PMA1 overexpression, p<0.01): significant decrease
EMIM-Cl tolerance on overexpression of PTK2 ([2]; PTK2 overexpression): reduced EMIM-Cl tolerance, but not significantly
resistant to concentration [3]: over 5%
effects on growth at pH 6.5 versus pH 5.0 [4]: much greater
tolerance conferred by deletion of PTK2 in Y133 [5]: significantly greater tolerance
Fold Change ([6]; HMI1 deletion mutant): 0.1939
Fold Change ([6]; LYS5 deletion mutant): 0.1821
Fold Change ([6]; MCT1 deletion mutant): 0.1576
Fold Change ([6]; SHE9 deletion mutant): 0.2014
